Laboratory results taken from patent US5837483A, “Enzymatic method for producing N-formyl-α-L-aspartyl-L-phenylalanine methyl ester” (Holland Sweetener Company V.o.F., priority 1996, dated 1998).
Residues, ends and D or L forms follow the SMILES beside them. *: point of attachment. For = O=C*

Tests used:
[1] = Partition of F-APM between water-immiscible organic solvent and aqueous phase (distribution ratio, eq. 1); type: physicochemical; conditions: for PF-APM / pKa: 40° C; for pKa: read-out: pKF-APM
Description: The water-immiscible solvents of which distribution ratios (DF-APM) described by following equation (1) are 10^-2 or more at pH=6.0 are suitable for effective the extraction of the F-APM produced to the organic phase: [formula] wherein
PF-APM =(CF-APM)org /(CF-APM)aq (1a);
KF-APM ={(CF-APM.spsb.-)aq ×CH.spsb.+
(CF-APM)org : concentration of F-APM contained in the organic phase after the extraction of F-APM;
(CF-APM)aq : concentration of F-APM remained in the aqueous phase after the extraction of F-APM;
(CF-APM.spsb.-)aq : concentration of F-APM^- remained in the aqueous phase after the extraction of F-APM;
CH.spsb.+ : concentration of H^+ remained in the aqueous phase after the extraction of F-APM.
Above PF-APM and KF-APM were obtained by following partition model of F-APM described by following scheme 1. [drawing 1]
Furthermore, above equation (1) was obtained by relation described by following equation (3). [formula]
(§1) 10 ml of organic solvent saturated by water and 10 ml of aqueous solution saturated by organic solvent were entered into sample tube, and 50 mM of F-L-Asp was dissolved in said organic solvent saturated by water and 50 mM of F-APM was dissolved in said aqueous solution saturated by organic solvent.
As a value showing the ability of organic solvent to extract F-APM from aqueous phase, DF-ApM described by equation (1) were used.
(§2) Measurements of these PF-APM and PF-L-Asp were carried out at 40° C.
(§3) DF-APM values of many kinds of organic solvent are shown in Table 1 wherein methyl isobutyl ketone, n-butylformate and butyl acetate are shown as comparative examples, and DF-L-Asp values of many kinds of organic solvent are shown in Table 2.

[2] = Batchwise biphase condensation reaction: F-APM in aqueous and organic phase by HPLC; type: physicochemical; conditions: tributyl phosphoric acid/aqueous enzyme solution pH=6.5, 40° C
Protocol: This example was carried out by batchwise operation in biphase system of aqueous phase and organic phase.
An enzyme aqueous solution of pH=6.5 containing 1.131 g/l of thermoase, 0.1M buffer agent (MES) and 0.01M CaCl2, and substrate tributyl phosphoric acid solution containing 88.15 mM of F-L-Asp and 120.97 mM of L-PM were prepared separately and were maintained at 40° C. Both 5 ml's of two solutions were mixed and the condensation reaction between F-L-Asp and L-PM was started. Concentrations of F-L-Asp, L-PM and F-APM were analyzed by HPLC.

[3] = Partition of F-L-Asp between water-immiscible organic solvent and aqueous phase (distribution ratio, eq. 2); type: physicochemical; conditions: for PF-A-Asp / pKa: 40° C
Description: Moreover, organic solvents of which distribution ratios of F-L-Asp (DF-L-Asp) described by following equation (2) are 10^-4 or less at pH=6.0 are suitable for increase of conversion ratios to F-APM because large amount of F-L-Asp can be distributed in aqueous phase: [formula] wherein
PF-L-Asp =(CF-L-Asp)org /(CF-L-Asp)aq(2a);
KF-L-Asp1 ={(Cf-L-Asp.spsb.-)aq ×CH.spsb.+
KF-l=Asp2 ={(CF-L-Asp.spsb.2-)aq ×CH.spsb.+
}/(CF-L-Asp.spsb.-)aq (2c);
(CF-L-Asp)org : concentration of F-L-Asp contained in the organic phase after the extraction of F-APM;
(CF-L-Asp)aq : concentration of F-L-Asp remained in the aqueous phase after the extraction of F-APM;
(CF-L-Asp.spsb.-)aq : concentration of F-L-Asp^- remained in the aqueous phase after the extraction of F-APM;
CH.spsb.+ : concentration of H^+ remained in the aqueous phase after the extraction of F-APM;
(CF-L-Asp.spsb.2-)aq : concentration of F-L-Asp^2- remained in the aqueous phase after the extraction of F-APM.
PF-L-Asp, KF-L-Asp1 and KF-L-Asp2 were obtained by the partition model of F-L-Asp described by following scheme 2: [drawing 2]
Furthermore, above equation (2) was obtained by following equation (4): [formula]
as §1
As a value showing the ability to suppress transfer of F-L-Asp from aqueous phase to organic phase, DF-L-Asp described by equation (2) was used.
as §2, §3

[4] = relative to cane sugar; cited from earlier work
[5] = butylacetate/water (comparative)
[6] = methyl ethyl ketone/water, pH = 5
[7] = methyl ethyl ketone/water, pH = 6
[8] = methyl ethyl ketone/water, pH = 7
[9] = methyl isobutyl ketone/water (comparative)
[10] = n-butylformate/water (comparative)
[11] = tri-butylphosphoric acid, n-amylalcohol, t-amylalcohol, 1-butanol, methyl ethyl ketone and isobutanol, pH=6.0
[12] = tri-butylphosphoric acid/water, pH = 5
[13] = tri-butylphosphoric acid/water, pH = 6
[14] = tri-butylphosphoric acid/water, pH = 7

## COC(=O)[C@H](Cc1ccccc1)NC(=O)[C@H](CC(=O)O)NC=O [F-APM, N-formyl-α-L-aspartyl-L-phenylalanine methyl ester] (For-Asp-Phe-OMe)
[1]; 1-butanol/water
  PF-APM: 7.13
  pKa: 4.17
[1]; 1-butanol/water, pH = 5
  DF-APM: 0.919
[1]; 1-butanol/water, pH = 6
  DF-APM: 0.101
[1]; 1-butanol/water, pH = 7
  DF-APM: 0.0105
[1]; [5]
  PF-APM: 0.47
  pKa: 4.02
[1]; butylacetate/water (comparative), pH = 5
  DF-APM: 0.045
[1]; butylacetate/water (comparative), pH = 6
  DF-APM: 0.0049
[1]; butylacetate/water (comparative), pH = 7
  DF-APM: 0.00049
[1]; methyl ethyl ketone/water
  PF-APM: 2.14
  pKa: 4.61
[1]; [6]
  DF-APM: 0.556
[1]; [7]
  DF-APM: 0.087
[1]; [8]
  DF-APM: 0.0087
[1]; [9]
  PF-APM: 0.80
  pKa: 4.01
[1]; methyl isobutyl ketone/water (comparative), pH = 5
  DF-APM: 0.074
[1]; methyl isobutyl ketone/water (comparative), pH = 6
  DF-APM: 0.0080
[1]; methyl isobutyl ketone/water (comparative), pH = 7
  DF-APM: 0.00082
[1]; n-amylalcohol/water
  PF-APM: 3.70
  pKa: 4.22
[1]; n-amylalcohol/water, pH = 5
  DF-APM: 0.527
[1]; n-amylalcohol/water, pH = 6
  DF-APM: 0.0604
[1]; n-amylalcohol/water, pH = 7
  DF-APM: 0.0061
[1]; [10]
  PF-APM: 0.64
  pKa: 4.17
[1]; n-butylformate/water (comparative), pH = 5
  DF-APM: 0.083
[1]; n-butylformate/water (comparative), pH = 6
  DF-APM: 0.0091
[1]; n-butylformate/water (comparative), pH = 7
  DF-APM: 0.0012
[1]; t-amylalcohol/water
  PF-APM: 6.89
  pKa: 4.21
[1]; t-amylalcohol/water, pH = 5
  DF-APM: 0.866
[1]; t-amylalcohol/water, pH = 6
  DF-APM: 0.107
[1]; t-amylalcohol/water, pH = 7
  DF-APM: 0.0111
[1]; [11]
  DF-APM values at pH=6.0: ≥ 1×10^-2
[1]; tri-butylphosphoric acid/water
  PF-APM: 13.0
  pKa: 4.01
[1]; [12]
  DF-APM: 1.20
[1]; [13]
  DF-APM: 0.13
[1]; [14]
  DF-APM: 0.0133
[2]
  transfer of F-APM produced to the organic phase: all F-APM produced were transferred to the organic phase

## O=CN[C@@H](CC(=O)O)C(=O)O [F-L-Asp, N-formyl-L-aspartic acid]
[3]; 1-butanol/water
  PF-A-Asp: 0.424
[3]; 1-butanol/water, read-out: pKF-L-Asp1
  pKa: 2.99
[3]; 1-butanol/water, read-out: pKF-L-Asp2
  pKa: 4.83
[3]; 1-butanol/water, pH = 5
  DF-L-Asp: 16.6 ×10^-4
[3]; 1-butanol/water, pH = 6
  DF-L-Asp: 0.262 ×10^-4
[3]; 1-butanol/water, pH = 7
  DF-L-Asp: 0.00278 ×10^-4
[3]; isobutanol/water
  PF-A-Asp: 0.356
[3]; isobutanol/water, read-out: pKF-L-Asp1
  pKa: 3.11
[3]; isobutanol/water, read-out: pKF-L-Asp2
  pKa: 4.44
[3]; isobutanol/water, pH = 5
  DF-L-Asp: 9.9 ×10^-4
[3]; isobutanol/water, pH = 6
  DF-L-Asp: 0.123 ×10^-4
[3]; isobutanol/water, pH = 7
  DF-L-Asp: 0.00125 ×10^-4
[3]; methyl ethyl ketone/water
  PF-A-Asp: 0.296
[3]; methyl ethyl ketone/water, read-out: pKF-L-Asp1
  pKa: 3.43
[3]; methyl ethyl ketone/water, read-out: pKF-L-Asp2
  pKa: 4.43
[3]; [6]
  DF-L-Asp: 16.0 ×10^-4
[3]; [7]
  DF-L-Asp: 0.201 ×10^-4
[3]; [8]
  DF-L-Asp: 0.00206 ×10^-4
[3]; n-amylalcohol/water
  PF-A-Asp: 0.166
[3]; n-amylalcohol/water, read-out: pKF-L-Asp1
  pKa: 2.95
[3]; n-amylalcohol/water, read-out: pKF-L-Asp2
  pKa: 4.17
[3]; n-amylalcohol/water, pH = 5
  DF-L-Asp: 1.9 ×10^-4
[3]; n-amylalcohol/water, pH = 6
  DF-L-Asp: 0.0216 ×10^-4
[3]; n-amylalcohol/water, pH = 7
  DF-L-Asp: 0.00021 ×10^-4
[3]; t-amylalcohol/water
  PF-A-Asp: 0.498
[3]; t-amylalcohol/water, read-out: pKF-L-Asp1
  pKa: 3.16
[3]; t-amylalcohol/water, read-out: pKF-L-Asp2
  pKa: 4.63
[3]; t-amylalcohol/water, pH = 5
  DF-L-Asp: 21.4 ×10^-4
[3]; t-amylalcohol/water, pH = 6
  DF-L-Asp: 0.294 ×10^-4
[3]; t-amylalcohol/water, pH = 7
  DF-L-Asp: 0.00305 ×10^-4
[3]; tri-butyl phosphoric acid/water, read-out: pKF-L-Asp1
  pKa: 3.18
[3]; tri-butyl phosphoric acid/water, read-out: pKF-L-Asp2
  pKa: 4.44
[3]; [11]
  DF-L-Asp values at pH=6.0: ≤ 1×10^-4
[3]; tri-butylphosphoric acid/water
  PF-A-Asp: 0.558
[3]; [12]
  DF-L-Asp: 18.2 ×10^-4
[3]; [13]
  DF-L-Asp: 0.226 ×10^-4
[3]; [14]
  DF-L-Asp: 0.00231 ×10^-4

## COC(=O)[C@H](Cc1ccccc1)NC(=O)[C@@H](N)CC(=O)O [aspartame, α-L-Aspartyl-L-phenylalanine methyl ester] (H-Asp-Phe-OMe)
[4]
  sweetness of cane sugar: about 200 times
